Assay results taken from US8778966B2, “Quinolinone derivatives as PARP and tank inhibitors” (Janssen Pharmaceutica, NV, priority 2007, dated 2014).

Columns and labels:
[1] = test system: tubulin; assay: Tubulin polymerization assay; assay type: biochemical; set-up: key: a compound showing 0 to 50% inhibition at 20 μM is reported as score 1; Score 2 compounds are defined as compound showing more than 50% inhibition at 20 μM and less than 50% inhibition at 5 μM; a compound showing more than 50% inhibition at 5 μM is reported as score 3; settings: tested at 20 μM and 5 μM
Method: The tubulin polymerization assay is an adaptation of an assay originally described by Bonne, D. et al. (J. Biol. Chem., 1985, 260:2819-25). The assay kit was purchased from Cytoskeleton, Inc. (catalogue number BK011) and the assay was performed as described by the supplier with the following modifications. The assay was run in a 384-well black Proxiplate (Perkin Elmer) and volumes were adapted accordingly. The reactions were carried out in a final volume of 10 μl. Compounds were added to 25 μl of the reaction mix in 96-well PP plates (Corning) on ice and 10 μl of this mixture was dispensed into duplicates of the 384-well Proxiplates pre-warmed to 37° C. in a Fluoroskan Ascent plate reader (Thermo Scientific). Fluorescence measurements were taken every minute for one hour. The maximum slope of each well was determined (linear regression through 4 consecutive points) and polymerization was calculated as a percentage of polymerization observed in the absence of compound. Compounds were first measured at a concentration of 20 μM and then at 5 μM for those showing more than 50% inhibition at 20 μM as compared to the polymerization observed in the absence of compound. Results are reported in Table F-2 as scores defined as: a compound showing 0 to 50% inhibition at 20 μM is reported as score 1; a compound showing more than 50% inhibition at 5 μM is reported as score 3.

[2] = test system: HCT116 cells; assay: Mitotic arrest assay on HCT116 cells (phospho-histone H3 Ser10); assay type: cell-based, human; settings: Homo sapiens, HCT-116, HCT116 cells; lowest active dose; read-out: Mitotic arrest HCT116 LAD (converted)
Description: Phosphorylation of histone H3 is tightly correlated with chromosome condensation during both mitosis and meiosis. The assay is a cellular immunosorbent assay wherein the sole antibody is labelled with a detectable conjugate. The phospho-histone H3 (ser10) antibody detects endogenous levels of histone H3 only when phosphorylated at serine 10. […] In parallel with antibody detection, the nuclei of the cells are stained with Hoechst 33342 for cell-counting. Cells are detected and analysed using the InCell Analyzer 1000 from GE Healthcare. Since both the antibody-detection as well as the Hoechst-staining are in the nucleus, the dual area object intensity algorithm is used for analysing the wells.
All compounds tested were dissolved in DMSO and further dilutions were made in culture medium. Final DMSO concentrations never exceeded 0.1% (v/v).
HCT116 cells (supplier: ATCC) (human colon carcinoma cell line) were cultivated in Mc Coy's 5 A medium (supplier: Gibco) supplemented with 10% foetal calf serum (FCS), 2 mM L-glutamine and gentamycin at 37° C. in a humidified incubator with 5% CO2.
HCT116 cells were seeded at 20.000 cells per well in a 96 well plate (black/clear bottom, poly-D-lysine coated, supplier Greiner), cultured overnight to adhere to the bottom of the plate and treated with compound for 6 hours at 37° C. in a humidified incubator. After incubation, the medium was removed and cells were fixed using 100 μl/well formaldehyde (Accustain®, Formaline solution 10% neutral buffered, contains 4% formaldehyde w/v, supplier: Sigma) was added. After incubation for 15 minutes at room temperature, the formaldehyde was removed and cells were incubated with methanol (−20° C.) for 15 minutes at room temperature. After incubation, cells were washed once with phosphate-buffered saline (PBS —CaCl2, —MgCl2, suppier: Gibco)/0.05% Tween 20. The anti-phospho-histone H3 (Ser10) Alexa Fluor 488 antibody (supplier: Cell signalling) is used for detection of the cells inmitosis. The antibody was diluted 1/50 in 5% bovine serum albumins (BSA) and 50 μl/well was used for incubation overnight at room temperature in the dark.
A 1/2000 dilution of Hoechtst 33342 (10 mg/ml, supplier: Invitrogen) was made and 100 μl/well was added for at least 30 minutes before acquiring images. The absorbance at dual wavelengths of 360/480 nm was measured using the InCell Analyzer 1000 from GE Healthcare and the results were then analyzed.
For each experiment, controls (containing no drug) and a blank incubation (containing no cells or drugs) were run in parallel. Analysis was done in triplicate. Low cell count wells were invalidated. The blank value was subtracted from all control and sample values and divided by the standard deviation of the measurements. The compounds were considered active when the obtained value (sigma) was >5. Herein the effects of test compounds are expressed as the lowest dose giving a sigma value of >5 (LAD) (see table F-2).

| SMILES | tubulin polymerisation score [1] | melting point [°C] | minimal effective concentration [2] [µM] |
| --- | --- | --- | --- |
| CCc1cc2ccc([C@@](C)(C#N)CN(C)Cc3ccc(C#N)cc3)cc2[nH]c1=O (single isomer, unassigned) [Compound 253] | 2 | 116 | – |
| CCc1cc2ccc([C@](C)(C#N)[C@H]3CCOc4ccccc43)cc2[nH]c1=O (single isomer, unassigned) [Compound 394] | 1 (a compound showing 0 to 50% inhibition at 20 μM is reported as score 1) | – | – |
| CCc1cc2ccc([C@@](C)(C#N)[C@H]3CCOc4ccccc43)cc2[nH]c1=O (single isomer, unassigned) [Compound 395] | 2 | – | – |
| CCc1cc2ccc(C(C)(C#N)Cc3cccc(-c4cnn(C)c4)c3)cc2[nH]c1=O (stereo not shown) [Compound 17] | – | 170 | 1 |
| CCc1cc2ccc(C(C)(C#N)Cc3cccc(-c4ccccc4)c3)cc2[nH]c1=O (stereo not shown) [Compound 18] | – | 192 | 0.316 |
| CCc1cc2ccc(C(C)(C#N)Cc3cccc(N(C)C)c3)cc2[nH]c1=O (stereo not shown) [Compound 20] | – | 193 | 0.1 |
| CCc1cc2ccc(C(C)(C#N)Cc3cccc(N4CCOCC4)c3)cc2[nH]c1=O (stereo not shown) [Compound 21] | – | 162 | 0.316 |
| CCc1cc2ccc(C(C)(C#N)Cc3cccc(O)c3)cc2[nH]c1=O (stereo not shown) [Compound 22] | – | 217 | 3.16 |
| CCc1cc2ccc(C(C)(C#N)Cc3cccc(OCc4ccccc4)c3)cc2[nH]c1=O (stereo not shown) [Compound 23] | – | 150 | 1 |
| CCc1cc2ccc(C(C)(C#N)Cc3cccc(OCCOC)c3)cc2[nH]c1=O (stereo not shown) [Compound 24] | – | 134 | 1 |
| CCC(=O)c1cccc(CC(C)(C#N)c2ccc3cc(C)c(=O)[nH]c3c2)c1 (stereo not shown) [Compound 173] | 3 (a compound showing more than 50% inhibition at 5 μM is reported as score 3) | – | – |
| CCc1cc2ccc(C(C)(C#N)Cc3cc(C)cc(C#N)c3)cc2[nH]c1=O (stereo not shown) [Compound 174] | – | 212 | – |
| CCc1cc2ccc(C(C)(C#N)Cc3cccc(S(F)(F)(F)(F)F)c3)cc2[nH]c1=O (stereo not shown) [Compound 177] | – | 124 | – |
| CCc1cc2ccc(C(C)(C#N)Cc3cccc(C4(N)CC4)c3)cc2[nH]c1=O (stereo not shown) [Compound 180] | – | > 250 | – |
| CCc1cc2ccc(C(C)(C#N)CCCN(C)C(=O)c3ccc(F)cc3)cc2[nH]c1=O (stereo not shown) [Compound 188] | – | 256 | – |
| CCc1cc2ccc([C@](C)(C#N)CN(C)Cc3ccc(C#N)cc3)cc2[nH]c1=O [Compound 190] | – | 106 | – |
| CCc1cc2cc(C)c(C(C)(C#N)Cc3cccc(C#N)n3)cc2[nH]c1=O (stereo not shown) [Compound 208] | – | > 250 | – |
| CCc1cc2ccc(C(C)(C#N)Cc3ccc(Cl)nc3Cl)cc2[nH]c1=O (stereo not shown) [Compound 212] | – | 222 | – |
| COc1cc2ccc(C(C)(C#N)Cc3cccc(C#N)n3)cc2[nH]c1=O (stereo not shown) [Compound 218] | 2 | 95 | – |
| CCc1cc2ccc(C(C)(C#N)Cc3ccc(OC)nc3Cl)cc2[nH]c1=O (stereo not shown) [Compound 224] | – | 167 | – |
| CCc1cc2ccc(C(C)(C#N)Cc3ccc(Cl)nc3OC)cc2[nH]c1=O (stereo not shown) [Compound 225] | 2 | 160 | – |
| CCc1cc2ccc(C(C)(C#N)Cc3cccc(N4CCCC4)n3)cc2[nH]c1=O (stereo not shown) [Compound 226] | 2 | 155 | – |
| CCc1cc2ccc(C(C)(C#N)Cc3cc(OC)cc(OC)n3)cc2[nH]c1=O (stereo not shown) [Compound 232] | 2 | 65 | – |

| SMILES | tubulin polymerisation score [1] | melting point [°C] | minimal effective concentration [2] [µM] |
| --- | --- | --- | --- |
| CCc1cc2ccc(C(C)(C#N)Cc3cc(C#N)cc4c3OCC4)cc2[nH]c1=O (stereo not shown) [Compound 236] | 2 | 250 | – |
| CCc1cc2ccc(C(C)(C#N)Cc3cc4ccccc4nn3)cc2[nH]c1=O (stereo not shown) [Compound 238] | – | 250 | – |
| Cc1cc2ccc(C(C)(C#N)C3CCc4ccc(Br)cc43)cc2[nH]c1=O (stereo not shown) [Compound 249] | 2 | – | – |
| CCc1cc2ccc(C(C#N)(CC)Cc3cccc(C#N)c3)cc2[nH]c1=O (stereo not shown) [Compound 265] | 2 | – | – |
| CCc1cc2ccc(C(C)(C#N)Cc3cc(F)cc(C#N)c3)cc2[nH]c1=O (stereo not shown) [Compound 266] | 3 (a compound showing more than 50% inhibition at 5 μM is reported as score 3) | – | – |
| CCc1cc2ccc(C(C#N)(CC)Cc3cccc(OC)c3)cc2[nH]c1=O (stereo not shown) [Compound 287] | 2 | – | – |
| CCOc1cc(C#N)nc(CC(C)(C#N)c2ccc3cc(CC)c(=O)[nH]c3c2)n1 (stereo not shown) [Compound 315] | 2 | – | – |
| CCc1cc2ccc(C(C#N)(CC)Cc3nc(C#N)cc(OC)n3)cc2[nH]c1=O (stereo not shown) [Compound 316] | 2 | – | – |
| CCc1cc2ccc(C(C#N)(CC)Cc3nc(OC)cc(OC)n3)cc2[nH]c1=O (stereo not shown) [Compound 321] | 2 | – | – |
| CCc1cc2ccc(C(C)(C#N)Cc3ccnc(C#N)c3)cc2[nH]c1=O (stereo not shown) [Compound 324] | 1 (a compound showing 0 to 50% inhibition at 20 μM is reported as score 1) | – | – |
| CCc1cc2ccc(C(C)(C#N)Cc3cc(C)nc(C#N)c3)cc2[nH]c1=O (stereo not shown) [Compound 328] | 2 | – | – |
| CCc1cc2ccc(C(C)(C#N)Cc3cccc(F)n3)cc2[nH]c1=O (stereo not shown) [Compound 331] | 2 | – | – |
| CCc1cc2ccc([C@](C)(C#N)Cc3cc(F)cc(F)c3)cc2[nH]c1=O [Compound 333] | 1 (a compound showing 0 to 50% inhibition at 20 μM is reported as score 1) | – | – |
| CCc1cc2ccc(C(C)(C#N)Cc3ccc(C(F)(F)F)nc3C)cc2[nH]c1=O (stereo not shown) [Compound 340] | 1 (a compound showing 0 to 50% inhibition at 20 μM is reported as score 1) | – | – |
| CCc1cc2ccc(C(C#N)(CC)Cc3cccc(C#N)n3)cc2[nH]c1=O (stereo not shown) [Compound 342] | 3 (a compound showing more than 50% inhibition at 5 μM is reported as score 3) | – | – |
| CCc1cc2ccc(C(C)(C#N)CCOc3ncc(Br)cn3)cc2[nH]c1=O (stereo not shown) [Compound 349] | 2 | – | – |
| CCc1cc2ccc(C(C)(C#N)Cc3nc(C)cc(OC)n3)cc2[nH]c1=O (stereo not shown) [Compound 371] | 1 (a compound showing 0 to 50% inhibition at 20 μM is reported as score 1) | – | – |
| CCc1cc2ccc(C(C)(C#N)CN3CCN(c4ncc(Br)cn4)CC3)cc2[nH]c1=O (stereo not shown) [Compound 374] | 2 | – | – |
| CCc1cc2ccc(C(C)(C#N)CN3CCc4ccccc4C3)cc2[nH]c1=O (stereo not shown) [Compound 376] | 1 (a compound showing 0 to 50% inhibition at 20 μM is reported as score 1) | – | – |
| CCc1cc2ccc([C@](C)(C#N)C[C@H]3Cc4ccccc4O3)cc2[nH]c1=O [Compound 397] | 1 (a compound showing 0 to 50% inhibition at 20 μM is reported as score 1) | – | – |
| CCc1cc2ccc(C(C)(C#N)CC3Oc4ccccc4O3)cc2[nH]c1=O (stereo not shown) [Compound 398] | 2 | – | – |
| CCc1cc2ccc(C(C)(C#N)Cc3cc(F)cc(F)c3)cc2[nH]c1=O (stereo not shown) [Compound 402] | 1 (a compound showing 0 to 50% inhibition at 20 μM is reported as score 1) | – | – |
